Data as given in PMC7915666, “Antitrypanosomal and Antileishmanial Activity of Chalcones and Flavanones from Polygonum salicifolium” (Pathogens, 2021).
In brackets after ≈: the same amount, converted by molar mass. Where two headings read alike, the source gives them in different places.

What was measured:
[1] = test system: T. b. brucei 427-WT; experiment: Alamar Blue (resazurin) assay, T. b. brucei Lister 427 wild-type bloodstream forms; details: for EC50: Trypanosoma brucei; for activity against Trypanosoma species (in words): Trypanosoma species (T. b. brucei and T. congolense)
[2] = test system: T. congolense DA-Res; type: cell-based, Trypanosoma congolense; details: for EC50: Trypanosoma congolense, read-out: T. congolense EC50, DA-Res
Protocol: (§1) The four compounds were tested for activity against the following three kinetoplastid pathogens: Trypanosoma brucei brucei, Trypanosoma congolense, and Leishmania mexicana. For the two Trypanosoma species, the compounds were tested in parallel against strains that were resistant to the most common trypanocides. T. b. brucei B48 is highly resistant to the entire classes of diamidines and melaminophenyl arsenicals, and T. congolense DA-Res was rendered resistant to diminazene aceturate by means of in vitro exposure to the drug. […] For the drug-resistant trypanosome strains, highly significant resistance to diamidines was confirmed, but there was no cross-resistance with the chalcones and flavanones. […] While this dataset of two chalcones is self-evidently insufficient for a structure–activity relationship (SAR) analysis, it is clear that the position of the hydroxy and methoxy groups on ring A (Figure 1) influenced the trypanocidal activity without increasing the toxicity.

[3] = test system: T. b. brucei B48; experiment: Alamar Blue (resazurin) assay, multi-drug resistant T. b. brucei B48; type: cell-based; details: Trypanosoma brucei, read-out: T. b. brucei EC50, B48
Protocol: as §1

[4] = Drug toxicity assay in human foreskin fibroblast (HFF) cells, resazurin; type: cell-based; details: HFF (human foreskin fibroblast) cells; human foreskin fibroblasts; highest concentration tested 100 µg/mL; mean ± SEM, n>=3
[5] = test system: HFF cells; experiment: as above; type: cell-based; details: EC50 (HFF)/EC50(427-WT)
[6] = test system: T. congolense IL3000-WT; experiment: Alamar Blue (resazurin) assay, T. congolense IL3000 wild-type bloodstream forms
[7] = 72 h, read-out: T. b. brucei EC50, 427-WT, bloodstream forms, 48 h + 24 h resazurin, mean ± SEM, n>=3

Compound | EC50 [1, 7] [µM] | EC50 [2] [µM] | resistance of clone 6C3 versus IL3000 ([2]; line adapted in vitro to diminazene aceturate) | EC50 [3] [µM] | activity against Trypanosoma species (in words) [1] | EC50 at 54 h [4] [µM] | SI (Tbb), selectivity index = EC50(HFF)/EC50(Tbb) [5] | EC50 ([1]; read-out: EC50 against Trypanosoma brucei brucei, standard resazurin-based assay) [µg/mL] | activity against T. congolense (in words) [6] | EC50 ([6]; Trypanosoma congolense, read-out: EC50 against T. congolense) [µg/mL] | fold less activity than compound 1 against T. b. brucei ([1]; relative to compound 1) | fold less activity than compound 1 against T. congolense ([6]; relative to compound 1) [fold]
N=C(N)c1ccc(/N=N/Nc2ccc(C(=N)N)cc2)cc1 [Diminazene, diminazene aceturate, reference compound] | 0.15 ± 0.01 | 1.43 ± 0.03 | ~ 10 fold | 2.4 ± 0.36 | – | – | – | – | – | – | – | –
COc1cc(O)c(OC)c2c1C(=O)CC(c1ccccc1)O2 (stereo not drawn) [Compound 4, 5,8-dimethoxy-7-hydroxyflavanone] | 55.3 ± 1.6 | 48 ± 6.2 | – | 51.9 ± 1.6 | moderate activity | > 330 | >6.0 | – | – | – | – | –
COc1cc(O)c(C(=O)/C=C/c2ccccc2)c(OC)c1 [Compound 1, 2′,4′-dimethoxy-6′-hydroxychalcone] | ~2 | 8.8 ± 0.28 | – | 1.8 | – | > 350 | >172 | 0.58 | moderate activity | 2.5 (≈ 8.79 µM) | – | –
COc1cc(O)c(OC)c(O)c1C(=O)/C=C/c1ccccc1 [Compound 2, 2′,5′-dimethoxy-4′,6′-dihydroxychalcone] | 14.6 ± 0.8 | 28.6 ± 1.4 | – | 13.9 ± 0.6 | – | > 330 | >22.8 | – | – | – | about 8 fold | ~4
COc1cc(OC)c2c(c1)OC(c1ccccc1)CC2=O (stereo not drawn) [Compound 3, 5,7-dimethoxyflavanone] | 30.1 ± 0.95 | 106 ± 15 | – | 30.3 ± 1.1 | moderate activity | > 350 | >11.7 | – | – | – | – | –
N=C(N)c1ccc(OCCCCCOc2ccc(C(=N)N)cc2)cc1 [Pentamidine, reference compound] | 0.0034 ± 0.0004 | – | – | 0.72 ± 0.03 | – | – | – | – | – | – | – | –
